Assay results taken from ChEMBL document CHEMBL6083262, “Stereorandomized Oncocins with Preserved Ribosome Binding and Antibacterial Activity” (J Med Chem, 2024).
In brackets after ≈: the same amount, converted by molar mass. Activity calls are given as the source filed them. No cut-off for these calls is given here. Non-standard residues stand in square brackets, D forms with d. Residues, ends and D or L forms follow the SMILES beside them. ξ: configuration not given here. ξY = NC(Cc1ccc(O)cc1)C(=O)O; ξR = N=C(N)NCCCC(N)C(=O)O; ξN = NC(=O)CC(N)C(=O)O; Nleu = CC(C)CNCC(=O)O; ξI = CCC(C)C(N)C(=O)O; Nlys = NCCCCNCC(=O)O; ξP = O=C(O)C1CCCN1

Legend:
Pseudomonas aeruginosa [1] = assay: Antibacterial activity against multidrug-resistant Pseudomonas aeruginosa PA14 incubated for 16 to 20 hrs in full muller hinton medium by broth microdilution method; type: functional; conditions: time 16-20 hrs
Pseudomonas aeruginosa [2] = assay: Antibacterial activity against multidrug-resistant Pseudomonas aeruginosa PA14 4.18 harboring pmrB mutant incubated for 16 to 20 hrs in full muller hinton medium by broth microdilution method; type: functional; conditions: time 16-20 hrs
Escherichia coli [3] = assay: Antimicrobial activity against Escherichia coli W3110 incubated for 16 to 20 hrs in 12.5 % muller hinton medium by broth microdilution method; type: functional; conditions: time 16-20 hrs
Pseudomonas aeruginosa [4] = assay: Antibacterial activity against multidrug-resistant Pseudomonas aeruginosa PA14 4.13 harboring phoQ mutant incubated for 16 to 20 hrs in full muller hinton medium by broth microdilution method; type: functional; conditions: time 16-20 hrs
Pseudomonas aeruginosa [5] = assay: Antibacterial activity against multidrug-resistant Pseudomonas aeruginosa clinical isolate ZEM-1A incubated for 16 to 20 hrs in full muller hinton medium by broth microdilution method; type: functional; conditions: time 16-20 hrs
Klebsiella pneumoniae [6] = assay: Antimicrobial activity against Klebsiella pneumoniae NCTC 418 incubated for 16 to 20 hrs in full muller hinton medium by broth microdilution method; type: functional; conditions: time 16-20 hrs
Staphylococcus aureus [7] = assay: Antimicrobial activity against methicillin-resistant Staphylococcus aureus COL incubated for 16 to 20 hrs in full muller hinton medium by broth microdilution method; type: functional; conditions: time 16-20 hrs
Pseudomonas aeruginosa [8] = assay: Antibacterial activity against multidrug-resistant Pseudomonas aeruginosa clinical isolate ZEM9A incubated for 16 to 20 hrs in full muller hinton medium by broth microdilution method; type: functional; conditions: time 16-20 hrs
Klebsiella pneumoniae [9] = assay: Antibacterial activity against multidrug-resistant Klebsiella pneumoniae clinical isolate OXA-48 incubated for 16 to 20 hrs in 12.5 % muller hinton medium by broth microdilution method; type: functional; conditions: time 16-20 hrs
Enterobacter cloacae = assay: Antibacterial activity against multidrug-resistant Enterobacter cloacae incubated for 16 to 20 hrs in full muller hinton medium by broth microdilution method; type: functional; conditions: time 16-20 hrs
Klebsiella pneumoniae [10] = assay: Antimicrobial activity against Klebsiella pneumoniae NCTC 418 incubated for 16 to 20 hrs in 12.5 % muller hinton medium by broth microdilution method; type: functional; conditions: time 16-20 hrs
Klebsiella pneumoniae [11] = assay: Antibacterial activity against multidrug-resistant Klebsiella pneumoniae clinical isolate OXA-48 incubated for 16 to 20 hrs in full muller hinton medium by broth microdilution method; type: functional; conditions: time 16-20 hrs
Acinetobacter baumannii = assay: Antimicrobial activity against Acinetobacter baumannii ATCC 19606 incubated for 16 to 20 hrs in full muller hinton medium by broth microdilution method; type: functional; conditions: time 16-20 hrs
Pseudomonas aeruginosa [12] = assay: Antibacterial activity against multidrug-resistant Pseudomonas aeruginosa PA14 2P4 harboring pmrB mutant incubated for 16 to 20 hrs in full muller hinton medium by broth microdilution method; type: functional; conditions: time 16-20 hrs
[13] = Hemolytic activity in human RBC incubated for 4 hrs; type: toxicity, cell-based; conditions: erythrocyte
Staphylococcus aureus [14] = assay: Antimicrobial activity against methicillin-resistant Staphylococcus aureus COL incubated for 16 to 20 hrs in 12.5 % muller hinton medium by broth microdilution method; type: functional; conditions: time 16-20 hrs
Escherichia coli [15] = assay: Antimicrobial activity against Escherichia coli W3110 incubated for 16 to 20 hrs in full muller hinton medium by broth microdilution method; type: functional; conditions: time 16-20 hrs
Escherichia coli [16] = assay: Bacteriostatic activity against Escherichia coli at 8 times MIC in full muller hinton medium by Time-kill assay; type: functional, organism-based
Escherichia coli [17] = assay: Bacteriostatic activity against Escherichia coli assessed as detachment of inner membrane from outer membrane by measuring a large void at 8 times MIC in full muller hinton medium by transmission electron microscopic analysis; type: functional, organism-based
rRNA = assay: Binding affinity to [gamma32 P-ATP] labeled Escherichia coli MG1655 23S ribosomal RNA (5-CCCTTGGGACCTACTTC-3') at U2506 position assessed as increase in band intensity at 1 uM incubated for 2.5 hrs in full muller hinton medium by CMCT based gel electrophoresis; type: nucleic-acid assay
Klebsiella pneumoniae [18] = assay: Bacteriostatic activity against Klebsiella pneumoniae assessed as small intracellular vesicles at 8 times MIC in full muller hinton medium by transmission electron microscopic analysis; type: functional, organism-based
Escherichia coli [19] = assay: Bacteriostatic activity against Escherichia coli assessed as small intracellular vesicles at 8 times MIC in full muller hinton medium by transmission electron microscopic analysis; type: functional, organism-based
Lipid bilayer [20] = assay: Induction of membrane disruption in egg yolk phosphatidyl glycerol at 10 ug/ml by measuring vesicle leakage; conditions: dose 10.0 µg/ml
Lipid bilayer [21] = assay: Induction of membrane disruption in egg yolk phosphatidyl choline at 10 ug/ml by measuring vesicle leakage; conditions: dose 10.0 µg/ml
Klebsiella pneumoniae [22] = assay: Bacteriostatic activity against Klebsiella pneumoniae assessed as membrane perturbation at 8 times MIC in full muller hinton medium by transmission electron microscopic analysis; type: functional, organism-based
Klebsiella pneumoniae [23] = assay: Bacteriostatic activity against Klebsiella pneumoniae assessed as detachment of inner membrane from outer membrane by measuring a large void at 8 times MIC in full muller hinton medium by transmission electron microscopic analysis; type: functional, organism-based
Escherichia coli [24] = assay: Bacteriostatic activity against Escherichia coli assessed as membrane perturbation at 8 times MIC in full muller hinton medium by transmission electron microscopic analysis; type: functional, organism-based
Klebsiella pneumoniae [25] = assay: Bacteriostatic activity against Klebsiella pneumoniae at 8 times MIC in full muller hinton medium by Time-kill assay; type: functional, organism-based

For `CC(C)C[C@H](NC(=O)CN(CC(C)C)C(=O)[C@H](CC(C)C)NC(=O)CN(CCCCN)C(=O)[C@H](CC(C)C)NC(=O)CN(CC(C)C)C(=O)[C@H](CCCCN)NC(=O)CN(CC(C)C)C(=O)[C@H](CC(C)C)NC(=O)CN(CCCCN)C(=O)[C@@H](N)CCCCN)C(N)=O` (H-K[Nlys]L[Nleu]K[Nleu]L[Nlys]L[Nleu]L-NH2), the MIC (Pseudomonas aeruginosa [1]) was greater than 32 µg/mL, the MIC (Pseudomonas aeruginosa [2]) was greater than 32 µg/mL and the MIC (Escherichia coli [3]) was 2 µg/mL (≈ 1.51 µM). It also gave an MIC (Pseudomonas aeruginosa [4]) greater than 32 µg/mL, an MIC (Pseudomonas aeruginosa [5]) greater than 64 µg/mL and an MIC (Klebsiella pneumoniae [6]) greater than 32 µg/mL. For the same compound, the MIC (Staphylococcus aureus [7]) was greater than 32 µg/mL, the MIC (Pseudomonas aeruginosa [8]) was greater than 64 µg/mL and the MIC (Klebsiella pneumoniae [9]) was 64 µg/mL (≈ 48.4 µM). For the same compound, the MIC (Enterobacter cloacae) was 64 µg/mL (≈ 48.4 µM), the MIC (Klebsiella pneumoniae [10]) was greater than 32 µg/mL and the MIC (Klebsiella pneumoniae [11]) was greater than 64 µg/mL. It also gave an MIC (Acinetobacter baumannii) greater than 32 µg/mL and an MIC (Pseudomonas aeruginosa [12]) greater than 64 µg/mL.

In the case of `CCC(C)C(NC(=O)C(CCCNC(=N)N)NC(=O)C(CCCNC(=N)N)NC(=O)[C@@H]1CCCN1C(=O)[C@@H]1CCCN1C(=O)[C@H](CCCNC(=N)N)NC(=O)[C@@H]1CCCN1C(=O)[C@H](CCCNC(=N)N)NC(=O)[C@@H]1CCCN1C(=O)[C@H](CC(C)C)NC(=O)[C@H](Cc1ccc(O)cc1)NC(=O)[C@@H]1CCCN1C(=O)[C@@H]1CCCN1C(=O)[C@H](CCCCN)NC(=O)[C@H](CC(=O)O)NC(=O)[C@@H](N)C(C)C)C(=O)NC(Cc1ccc(O)cc1)C(=O)NC(CC(N)=O)C(=O)NC(CCCNC(=N)N)C(N)=O` (some centres not stated) (H-VDKPPYLPRPRPP[ξR][ξR][ξI][ξY][ξN][ξR]-NH2), the MIC (Escherichia coli [3]) is reported as 1 µg/mL (≈ 0.418 µM), the MHC [13] is reported as greater than 1000 µg/mL and the MIC (Staphylococcus aureus [14]) is reported as greater than 16 µg/mL. It also gave an MIC (Klebsiella pneumoniae [6]) of 4 µg/mL (≈ 1.67 µM), an MIC (Staphylococcus aureus [7]) greater than 64 µg/mL and an MIC (Escherichia coli [15]) of 8 µg/mL (≈ 3.35 µM).

In the case of `CCC(C)C(NC(=O)C(CCCNC(=N)N)NC(=O)C(CCCNC(=N)N)NC(=O)C1CCCN1C(=O)[C@@H]1CCCN1C(=O)[C@H](CCCNC(=N)N)NC(=O)[C@@H]1CCCN1C(=O)[C@H](CCCNC(=N)N)NC(=O)[C@@H]1CCCN1C(=O)[C@H](CC(C)C)NC(=O)[C@H](Cc1ccc(O)cc1)NC(=O)[C@@H]1CCCN1C(=O)[C@@H]1CCCN1C(=O)[C@H](CCCCN)NC(=O)[C@H](CC(=O)O)NC(=O)[C@@H](N)C(C)C)C(=O)NC(Cc1ccc(O)cc1)C(=O)NC(CC(N)=O)C(=O)NC(CCCNC(=N)N)C(N)=O` (some centres not stated) (H-VDKPPYLPRPRP[ξP][ξR][ξR][ξI][ξY][ξN][ξR]-NH2), the MIC (Escherichia coli [3]) is reported as 1 µg/mL (≈ 0.418 µM), the MHC [13] is reported as greater than 1000 µg/mL and the MIC (Staphylococcus aureus [14]) is reported as greater than 16 µg/mL. For the same compound, the MIC (Klebsiella pneumoniae [6]) was 4 µg/mL (≈ 1.67 µM), the MIC (Staphylococcus aureus [7]) was greater than 64 µg/mL and the MIC (Escherichia coli [15]) was 8 µg/mL (≈ 3.35 µM).

For `CCC(C)C(NC(=O)C(CCCNC(=N)N)NC(=O)C(CCCNC(=N)N)NC(=O)C1CCCN1C(=O)C1CCCN1C(=O)C(CCCNC(=N)N)NC(=O)[C@@H]1CCCN1C(=O)[C@H](CCCNC(=N)N)NC(=O)[C@@H]1CCCN1C(=O)[C@H](CC(C)C)NC(=O)[C@H](Cc1ccc(O)cc1)NC(=O)[C@@H]1CCCN1C(=O)[C@@H]1CCCN1C(=O)[C@H](CCCCN)NC(=O)[C@H](CC(=O)O)NC(=O)[C@@H](N)C(C)C)C(=O)NC(Cc1ccc(O)cc1)C(=O)NC(CC(N)=O)C(=O)NC(CCCNC(=N)N)C(N)=O` (some centres not stated) (H-VDKPPYLPRP[ξR][ξP][ξP][ξR][ξR][ξI][ξY][ξN][ξR]-NH2), the MIC (Pseudomonas aeruginosa [1]) was greater than 64 µg/mL, the Activity (Escherichia coli [16]) was “Active” and the Activity (Escherichia coli [17]) was “Active”. The Activity (rRNA) was “Active”, the Activity (Klebsiella pneumoniae [18]) was “Active” and the MHC [13] was greater than 1000 µg/mL. The Activity (Escherichia coli [19]) was “Active”, the Activity (Lipid bilayer [20]) was “Active” and the MIC (Staphylococcus aureus [7]) was greater than 64 µg/mL. The MIC (Pseudomonas aeruginosa [8]) was greater than 64 µg/mL, the Activity (Lipid bilayer [21]) was “Active” and the Activity (Klebsiella pneumoniae [22]) was “Active; Few Membrane Perturbation Observed”. The Activity (Klebsiella pneumoniae [23]) was “Active”, the Activity (Escherichia coli [24]) was “Active; Few Membrane Perturbation Observed” and the Activity (Klebsiella pneumoniae [25]) was “Active”. It also gave an MIC (Pseudomonas aeruginosa [12]) greater than 64 µg/mL.
